Source: BindingDB's records for patent US12215173 (Humanwell Pharmaceutical US, 2025)
Square brackets hold non-standard residues; d marks the D form. Peptide text beside a SMILES is read from it. * marks the point of attachment. Pyrrolidino(3-NH2-3-COOH) = NC1(C(=O)O)CCN(*)C1; dTic = O=C(O)[C@H]1Cc2ccccc2CN1

Tests used:
Assay in all cases: Opioid Receptor Binding Assay
[1] = molecular target: Delta-type opioid receptor (Homo sapiens, UniProt P41143)
Method: (§1) The assay buffers used for opioid receptor binding studies were 50 mM Tris HCl (pH 7.4) for KOR, 50 mM Tris HCl (pH 7.4) with 5 mM MgCl2 for MOR, and 50 mM Tris HCl (pH 7.4) with 10 mM MgCl2 plus 1 mM EDTA for DOR. Wash buffer contained 50 mM Tris HCl at pH 7.4. […] DADLE, which were used as the competing radioligands for mu, kappa and delta receptors, respectively.

[2] = molecular target: Kappa-type opioid receptor (Homo sapiens, UniProt P41145)
Method: as §1

Mu-type opioid receptor = Mu-type opioid receptor (Homo sapiens, UniProt P35372)
Sequence of Mu-type opioid receptor (P35372 whole entry): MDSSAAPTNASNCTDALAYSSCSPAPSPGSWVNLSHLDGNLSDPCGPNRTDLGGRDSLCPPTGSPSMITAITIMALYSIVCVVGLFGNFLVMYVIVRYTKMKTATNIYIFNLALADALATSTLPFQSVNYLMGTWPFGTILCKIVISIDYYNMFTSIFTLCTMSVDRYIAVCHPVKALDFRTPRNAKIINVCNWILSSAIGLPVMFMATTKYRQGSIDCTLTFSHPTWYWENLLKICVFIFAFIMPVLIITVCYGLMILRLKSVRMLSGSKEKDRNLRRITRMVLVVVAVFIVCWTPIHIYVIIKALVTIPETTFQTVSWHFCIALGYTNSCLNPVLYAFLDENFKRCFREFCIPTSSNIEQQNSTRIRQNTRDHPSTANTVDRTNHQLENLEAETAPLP
Method: as §1

Sequence of Kappa-type opioid receptor (P41145 whole entry): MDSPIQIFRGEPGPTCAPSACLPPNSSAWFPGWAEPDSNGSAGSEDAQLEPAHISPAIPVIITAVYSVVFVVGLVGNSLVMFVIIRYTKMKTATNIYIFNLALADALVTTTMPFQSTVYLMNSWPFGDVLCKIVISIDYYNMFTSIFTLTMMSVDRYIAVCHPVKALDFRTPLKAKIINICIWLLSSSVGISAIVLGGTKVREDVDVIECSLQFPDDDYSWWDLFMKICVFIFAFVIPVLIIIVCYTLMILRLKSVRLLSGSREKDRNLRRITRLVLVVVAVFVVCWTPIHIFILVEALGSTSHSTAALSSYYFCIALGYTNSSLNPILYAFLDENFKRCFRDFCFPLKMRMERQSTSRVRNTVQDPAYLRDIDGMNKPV
Sequence of Delta-type opioid receptor (P41143 whole entry): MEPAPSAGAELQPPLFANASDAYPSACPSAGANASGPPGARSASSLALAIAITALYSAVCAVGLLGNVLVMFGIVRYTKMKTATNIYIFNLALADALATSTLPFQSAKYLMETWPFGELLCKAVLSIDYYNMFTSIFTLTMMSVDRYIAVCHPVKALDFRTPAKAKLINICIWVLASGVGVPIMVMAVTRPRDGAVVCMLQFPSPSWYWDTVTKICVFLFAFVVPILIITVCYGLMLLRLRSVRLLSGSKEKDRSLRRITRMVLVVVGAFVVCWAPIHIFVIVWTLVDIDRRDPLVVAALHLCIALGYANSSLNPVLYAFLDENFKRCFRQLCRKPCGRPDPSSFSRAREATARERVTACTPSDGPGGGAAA

CC(C)C[C@@H](NC(=O)[C@@H](Cc1ccccc1)NC(=O)[C@H](N)Cc1ccccc1)C(=O)N[C@H](CCCCN)C(=O)NCc1cccc(C(=O)O)n1 [US12215173, Compound 13-6]
IC50 [1]: > 10 µM | IC50 [2]: 0.00945 µM | IC50 (Mu-type opioid receptor): > 10 µM

CC(C)C[C@@H](NC(=O)[C@@H](Cc1ccccc1)NC(=O)[C@H](N)Cc1ccccc1)C(=O)N[C@H](CCCCN)C(=O)NCCC[C@H](N)C(=O)O [US12215173, Compound 13-44]
IC50 [1]: > 10 µM | IC50 [2]: 0.00046 µM | IC50 (Mu-type opioid receptor): > 10 µM

CC(C)C[C@@H](NC(=O)[C@@H](Cc1ccccc1)NC(=O)[C@H](N)Cc1ccccc1)C(=O)N[C@H](CCCCN)C(=O)N1CCC(O)(CO)CC1 [US12215173, Compound 13-65]
IC50 [1]: > 10 µM | IC50 [2]: 0.00045 µM | IC50 (Mu-type opioid receptor): > 10 µM

COC(=O)C1(N)CCN(C(=O)[C@@H](CCCCN)NC(=O)[C@H](NC(=O)[C@@H](Cc2ccccc2)NC(=O)[C@H](N)Cc2ccccc2)C(C)(C)C)CC1 [US12215173, Compound 100]
IC50 [1]: > 10 µM | IC50 [2]: 0.013 µM | IC50 (Mu-type opioid receptor): > 10 µM

COC(=O)C1(N)CCN(C(=O)[C@@H](CCCCN)NC(=O)[C@H](NC(=O)[C@@H](Cc2ccccc2)NC(=O)[C@H](N)Cc2ccccc2)C(C)(C)C)C1 (stereo partly specified) [US12215173, Compound 103]
IC50 [1]: > 10 µM | IC50 [2]: 0.0144 µM | IC50 (Mu-type opioid receptor): > 10 µM

CC(C)C[C@@H](NC(=O)[C@@H](Cc1ccccc1)NC(=O)[C@H]1Cc2ccccc2CN1)C(=O)N[C@H](CCCCN)C(=O)N1CCC(N)(C(=O)O)C1 (stereo partly drawn) [US12215173, Compound 169] (H-[dTic][dF][dL][dK]-{Pyrrolidino(3-NH2-3-COOH)})
IC50 [2]: 0.0888 µM

COC(=O)C1(N)CCN(C(=O)[C@@H](CCCCN)NC(=O)[C@@H](CC(C)C)NC(=O)[C@@H](Cc2ccccc2)NC(=O)[C@H]2Cc3ccccc3CN2)CC1 [US12215173, Compound 171]
IC50 [1]: > 10 µM | IC50 [2]: 0.00083 µM | IC50 (Mu-type opioid receptor): > 10 µM

CC(C)C[C@@H](NC(=O)[C@@H](Cc1ccccc1)NC(=O)[C@H]1Cc2ccccc2CN1)C(=O)N[C@H](CCCCN)C(=O)N1CCC(N)(C(=O)O)CC1 [US12215173, Compound 172]
IC50 [1]: > 10 µM | IC50 [2]: 0.00402 µM | IC50 (Mu-type opioid receptor): > 10 µM

COC(=O)C1(N)CCN(C(=O)[C@@H](CCCCN)NC(=O)[C@@H](CC(C)C)NC(=O)[C@@H](Cc2ccccc2)NC(=O)[C@H](N)Cc2ccc(F)cc2)C1 (stereo partly specified) [US12215173, Compound 181]
IC50 [1]: > 10 µM | IC50 [2]: 0.0004 µM | IC50 (Mu-type opioid receptor): > 10 µM

COC(=O)C1(N)CCN(C(=O)[C@@H](CCCCN)NC(=O)[C@@H](CC(C)C)NC(=O)[C@@H](Cc2ccccc2)NC(=O)[C@H](N)Cc2ccc(F)cc2)CC1 [US12215173, Compound 184]
IC50 [1]: > 10 µM | IC50 [2]: 0.00025 µM | IC50 (Mu-type opioid receptor): 8.09 µM

COC(=O)C1(N)CCN(C(=O)[C@@H](CCCCN)NC(=O)[C@@H](CC(C)C)NC(=O)[C@@H](Cc2ccccc2)NC(=O)[C@H](N)Cc2ccc(C(F)(F)F)cc2)C1 (stereo partly specified) [US12215173, Compound 194]
IC50 [1]: > 10 µM | IC50 [2]: 0.00407 µM | IC50 (Mu-type opioid receptor): 7.34 µM
